From US8846704B2, “Thiopyrimidine-based compounds and uses thereof” (YM Biosciences Austraila Pty Ltd, priority 2007, dated 2014)

Columns and labels:
[1] = target: T1, BaF3 TELJAK2 cells (BafT_J2) (Homo sapiens, UniProt O60674); test: Cellular screening, BaF3 TEL:JAK2 cells, Alamar Blue; assay type: cell-based; conditions: 40 hr, read-out: BafT_J2 IC50_nM
T1 construct: fused on or other part: TEL (ETV6) N-terminal part, coding nucleotides 1-487, serves as the oligomerising partner; It is fused through a Sal I site to the JAK2 kinase domain and expressed from pTRE2 in BaF3 cells bearing pTET-off; P41212 (Transcription factor ETV6)
T1 sequence (O60674 whole entry, change not shown, the tested form may be a part): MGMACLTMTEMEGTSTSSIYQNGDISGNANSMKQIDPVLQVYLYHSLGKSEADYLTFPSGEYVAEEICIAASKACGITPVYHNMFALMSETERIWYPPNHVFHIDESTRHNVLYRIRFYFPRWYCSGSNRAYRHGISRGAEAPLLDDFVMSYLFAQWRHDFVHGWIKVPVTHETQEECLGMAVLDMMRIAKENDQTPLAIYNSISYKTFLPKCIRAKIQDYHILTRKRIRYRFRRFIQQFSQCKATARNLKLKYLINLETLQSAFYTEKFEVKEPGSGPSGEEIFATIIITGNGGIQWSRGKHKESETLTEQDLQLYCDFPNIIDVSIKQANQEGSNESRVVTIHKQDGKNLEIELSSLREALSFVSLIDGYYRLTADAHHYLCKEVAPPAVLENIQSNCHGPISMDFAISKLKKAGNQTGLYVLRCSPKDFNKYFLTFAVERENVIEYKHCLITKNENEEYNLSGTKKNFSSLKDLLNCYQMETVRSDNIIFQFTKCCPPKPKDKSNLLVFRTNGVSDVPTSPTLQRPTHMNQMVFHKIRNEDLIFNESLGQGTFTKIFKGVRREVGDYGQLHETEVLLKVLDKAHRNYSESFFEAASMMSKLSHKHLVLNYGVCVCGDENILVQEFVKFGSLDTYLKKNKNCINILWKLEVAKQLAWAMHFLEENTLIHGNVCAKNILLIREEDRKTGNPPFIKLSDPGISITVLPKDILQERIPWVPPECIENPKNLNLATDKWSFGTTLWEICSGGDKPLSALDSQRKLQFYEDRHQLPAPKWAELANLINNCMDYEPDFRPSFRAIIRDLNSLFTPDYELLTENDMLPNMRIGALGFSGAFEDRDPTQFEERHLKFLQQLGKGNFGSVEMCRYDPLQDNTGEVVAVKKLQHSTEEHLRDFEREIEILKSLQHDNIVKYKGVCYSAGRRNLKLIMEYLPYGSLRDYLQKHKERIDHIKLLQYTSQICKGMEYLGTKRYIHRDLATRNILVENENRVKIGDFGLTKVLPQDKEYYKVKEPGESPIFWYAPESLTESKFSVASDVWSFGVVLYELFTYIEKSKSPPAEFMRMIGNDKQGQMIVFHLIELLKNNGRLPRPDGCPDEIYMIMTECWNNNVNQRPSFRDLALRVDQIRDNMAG
In short: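 Tet-off BaF3 cells carrying a TEL (nt 1-487)–JAK2 kinase-domain fusion, grown factor-independently in DMEM with 10% Tet-approved FBS without WEHI 3B medium. Compounds were diluted to 20 μM in screening plates, and cells (50,000–200,000 cell/mL at 1.1×) were incubated 40 hr at 37 °C, 5% CO2. Alamar Blue was then added for 4-6 hours; read at 544 nm.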

human JAK3 = target: T2, human JAK3 (Homo sapiens, UniProt P52333); test: Alphascreen tyrosine kinase enzyme assay, JAK3 kinase domain; assay type: biochemical; conditions: read-out: JAK3 IC50_nM
T2 construct: The kinase domain of human JAK3 was amplified; GST (N); made in house; host or cells: Sf9 insect cells (baculovirus)
T2 sequence (P52333 822-1111 limits assumed): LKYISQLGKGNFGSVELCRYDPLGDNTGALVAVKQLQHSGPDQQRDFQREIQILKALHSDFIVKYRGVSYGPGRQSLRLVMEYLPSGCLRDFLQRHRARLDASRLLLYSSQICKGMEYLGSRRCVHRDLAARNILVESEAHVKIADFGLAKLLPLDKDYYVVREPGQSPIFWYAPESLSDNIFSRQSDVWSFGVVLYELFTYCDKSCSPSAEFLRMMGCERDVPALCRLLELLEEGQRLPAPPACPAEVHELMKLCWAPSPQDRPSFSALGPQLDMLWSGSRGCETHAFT
In short: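 GST-affinity-purified human JAK3 kinase domain (baculovirus/Sf9) was pre-incubated 20 min with compound ([…]) in HEPES pH 7.5 buffer with MgCl2, vanadate and Tween 20. Biotinylated peptide substrate ([…]) and ATP were then added; phosphotyrosine was detected by AlphaScreen PY100 acceptor and streptavidin donor beads after 2–3 h.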

human JAK2 = target: T3, human JAK2 (Homo sapiens, UniProt O60674); test: Alphascreen tyrosine kinase enzyme assay, JAK2 kinase domain; assay type: biochemical; conditions: read-out: JAK2 IC50_nM
T3 construct: The kinase domain of human JAK2 was amplified; GST (N); made in house; host or cells: Sf9 insect cells (baculovirus)
T3 sequence (O60674 849-1124 limits assumed): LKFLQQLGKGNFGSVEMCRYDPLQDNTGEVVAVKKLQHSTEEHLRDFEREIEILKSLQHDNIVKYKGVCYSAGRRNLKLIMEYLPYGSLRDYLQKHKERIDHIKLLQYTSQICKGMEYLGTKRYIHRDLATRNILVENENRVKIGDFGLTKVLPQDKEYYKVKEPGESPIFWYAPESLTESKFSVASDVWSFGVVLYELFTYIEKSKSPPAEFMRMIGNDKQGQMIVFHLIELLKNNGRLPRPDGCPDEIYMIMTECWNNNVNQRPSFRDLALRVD
In short: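 JAK2 kinase domain expressed in baculovirus/Sf9 and glutathione-affinity purified. Compounds (final […]) pre-incubated 20 min with enzyme in 10 mM HEPES pH 7.5, MgCl2, NaCl, vanadate, 0.1% Tween 20.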

Row | Compound | GI50 [1] [µM] | IC50 (human JAK3) [µM] | IC50 (human JAK2) [µM]
1 | C=CC(=O)Nc1ccc(Sc2nc(Nc3ccc(N4CCOCC4)c(OC)c3)ncc2C)cc1 [Compound 248, N-(4-(2-(3-methoxy-4-morpholinophenylao)-5-methylpyrimidin-4-ylthio)phenyl)acrylamide] | < 20 | < 0.1 | > 1
2 | C=CC(=O)Nc1ccc(Sc2ccnc(Nc3ccc(O)cc3)n2)cc1 [Compound 276, N-(4-(2-(4-hydroxyphenylao)pyrimidin-4-ylthio)phenyl)acrylamide] | < 20 | < 0.1 | > 1
3 | C=CC(=O)NCc1cccc(Sc2ccnc(Nc3ccc(N4CCOCC4)cc3)n2)c1 [Compound 112, N-(3-(2-(4-morpholinophenylamino)pyrimidin-4-ylthio)benzyl)acrylamide] | < 20 | < 0.1 | > 1
4 | C=CC(=O)Nc1ccc(Sc2nc(Nc3cccc(N4CCOCC4)c3)ncc2F)cc1 [Compound 267, N-(4-(5-fluoro-2-(3-morpholinophenylao)pyrimidin-4-ylthio)phenyl)acrylamide] | < 5 | < 0.1 | > 1
5 | C=CC(=O)Nc1cccc(Nc2nccc(Sc3ccc(OC)cc3)n2)c1 [Compound 42, N-(3-(4-(4-methoxyphenylthio)pyrimidin-2-ylao)phenyl)acrylamide] | < 20 | < 0.1 | > 1
